Calls of active or inactive are those of the source. The rule behind the calls is not given here.
Key:
LLC-PK1 [1] = test: Renoprotective activity in pig LLC-PK1 cells assessed as inhibition of cisplatin-induced damage by measuring increase in cell viability at 10 to 100 uM preincubated for 2 hrs followed by cisplatin addition after 24 hrs by Ez-Cytox reagent based assay; type: functional; conditions: Sus scrofa
LLC-PK1 [2] = test: Renoprotective activity in pig LLC-PK1 cells assessed as inhibition of cisplatin-induced damage by measuring increase in cell viability preincubated for 2 hrs followed by cisplatin addition after 24 hrs by Ez-Cytox reagent based assay; type: functional; conditions: Sus scrofa
A2780 [3] = test: Potentiation of cisplatin-induced cytotoxicity against human A2780 cells after 24 hrs in presence of cisplatin by Ez-Cytox reagent based assay; type: functional, cell-based
LLC-PK1 [4] = test: Renoprotective activity in pig LLC-PK1 cells assessed as inhibition of cisplatin-induced damage by measuring cell viability at 50 to 100 uM preincubated for 2 hrs followed by cisplatin addition after 24 hrs by Ez-Cytox reagent based assay (reference value: 60%); type: functional, Sus scrofa
Sus scrofa [5] = organism: Sus scrofa; test: Inhibition of cisplatin-induced increase in phosphorylated JNK levels in pig LLC-PK1 cells at 50 to 100 uM pretreated for 2 hrs followed by cisplatin addition after 24 hrs by radioimmunoprecipitation assay; type: cell-based
Sus scrofa [6] = organism: Sus scrofa; test: Inhibition of cisplatin-induced increase in phosphorylated ERK levels in pig LLC-PK1 cells at 50 to 100 uM pretreated for 2 hrs followed by cisplatin addition after 24 hrs by radioimmunoprecipitation assay; type: cell-based
Sus scrofa [7] = organism: Sus scrofa; test: Inhibition of cisplatin-induced increase in phosphorylated p38 MAPK levels in pig LLC-PK1 cells at 50 to 100 uM pretreated for 2 hrs followed by cisplatin addition after 24 hrs by radioimmunoprecipitation assay; type: cell-based
LLC-PK1 [8] = test: Renoprotective activity in pig LLC-PK1 cells assessed as inhibition of cisplatin-induced increase in caspase-3 cleavage at 50 to 100 uM preincubated for 2 hrs followed by cisplatin addition after 24 hrs by radioimmunoprecipitation assay; type: functional, cell-based; conditions: Sus scrofa
LLC-PK1 [9] = test: Renoprotective activity in pig LLC-PK1 cells assessed as inhibition of cisplatin-induced apoptosis by measuring apoptotic cells at 50 to 100 uM preincubated for 2 hrs followed by cisplatin addition after 24 hrs by annexin-V Alexa Fluor488/propidium iodide staining based cytometric method (reference value: 26.3%); type: functional, Sus scrofa
A2780 [10] = test: Potentiation of cisplatin-induced cytotoxicity against human A2780 cells up to 100 uM after 24 hrs in presence of cisplatin by Ez-Cytox reagent based assay; type: functional, cell-based

| SMILES | inhibition (LLC-PK1 [1]) | inhibition (LLC-PK1 [2]) | Activity (A2780 [3]) | inhibition (INH) (LLC-PK1 [4]) | inhibition (Sus scrofa [5]) | inhibition (Sus scrofa [6]) | inhibition (Sus scrofa [7]) | inhibition (LLC-PK1 [8]) | inhibition (INH) (LLC-PK1 [9]) [%] | Activity (A2780 [10]) |
| --- | --- | --- | --- | --- | --- | --- | --- | --- | --- | --- |
| O=c1c(O)c(-c2ccc(O)c(O)c2)oc2cc(O)cc(O)c12 | Active |  |  |  |  |  |  |  |  |  |
| CC(=O)O[C@H]1CC[C@]2(C)C3=CC[C@]4(C)[C@@H]([C@@H](CCC=C(C)C)C(=O)O)CC[C@@]4(C)C3=CC[C@H]2C1(C)C |  | Dose-dependent effect | inactive |  |  |  |  |  |  |  |
| C=C(CC[C@@H](C(=O)O)[C@H]1CC[C@@]2(C)C3=CC[C@H]4C(C)(C)[C@@H](OC(C)=O)CC[C@]4(C)C3=CC[C@]12C)C(C)C |  | Dose-dependent effect |  | <=80% | Active | Active | Active | Active | 4.3 | Active |

Source: ChEMBL document CHEMBL4020762, “Protective effect of lanostane triterpenoids from the sclerotia of Poria cocos Wolf against cisplatin-induced apoptosis in LLC-PK1 cells” (2017)
